Assays:
[1] = target: T1, h-GABA-A α5β3γ2 (Homo sapiens (Human), UniProt P18507+P31644); experiment: [3H]flumazenil competition binding assay, membranes of HEK293 cells expressing human GABAA receptors; conditions: displacement of [3H]flumazenil 0.5 nM, HEK293 cells expressing human receptors, mean of two determinations; read-out: Ki h-GABA-A α5β3γ2
Description: The affinity of compounds at GABAA receptor subtypes was measured by competition for [3H]flumazenil (85 Ci/mmol; Roche) binding to HEK293 cells expressing rat (stably transfected) or human (transiently transfected) receptors of composition α1β3γ2, α2β3γ2, α3β3γ2 and α5β3γ2.
Cell pellets were suspended in Krebs-tris buffer (4.8 mM KCl, 1.2 mM CaCl2, 1.2 mM MgCl2, 120 mM NaCl, 15 mM Tris; pH 7.5; binding assay buffer), homogenized by polytron for ca. 20 sec on ice and centrifuged for 60 min at 4° C. (50000 g; Sorvall, rotor: SM24=20000 rpm). The cell pellets were resuspended in Krebs-tris buffer and homogenized by polytron for ca. 15 sec on ice. Protein was measured (Bradford method, Bio-Rad) and aliquots of 1 mL were prepared and stored at −80° C.
Assays were incubated to equilibrium for 1 hour at 4° C. and harvested onto GF/C uni-filters (Packard) by filtration using a Packard harvester and washing with ice-cold wash buffer (50 mM Tris; pH 7.5). After drying, filter-retained radioactivity was detected by liquid scintillation counting. Ki values were calculated using Excel-Fit (Microsoft) and are the means of two determinations.

[2] = target: T1, h-GABA-A α5β3γ2; experiment: Two-electrode voltage clamp electrophysiology in Xenopus oocytes expressing GABAA receptors, modulation of GABA EC20 current; assay type: cell-based; conditions: Xenopus oocytes; for Efficacy (GABA) %: % modulation of GABA EC20 = 100*(Fold increase−1); for Fold increase h-GABA-A α5β3γ2 oocyte: GABA EC20, test compound at approx. 30 fold its Ki
Description: Xenopus laevis oocytes at maturation stages V-VI were used for the expression of cloned mRNA encoding GABAA receptor subunits. Oocytes ready for RNA micro-injection were bought from Ecocyte, Castrop-Rauxel, Germany and stored in modified Barth's medium (composition in mM: NaCl 88, KCl 1, NaHCO32.4, HEPES 10, MgSO4 0.82, CaNO3 0.33, CaCl2) 0.33, pH=7.5) at 20° C. until the experiment.
Oocytes were plated in 96-well plates to be used in an automated instrument (Robo-ocyte, MultiChannelSystems, Reutlingen, Germany) for microinjection and electrophysiological recordings. Approximately 50 nl of an aqueous solution containing the RNA transcripts for the subunits of the desired GABAA receptor was injected into each oocyte. RNA concentrations ranged between 0.3 and 16 ng/μl/subunit and were adjusted in pilot experiments to obtain GABA responses of a suitable size and a maximal effect of the reference modulator, Beta-CCM (β-CCM), a betacarboline negative allosteric modulator (NAM) at the GABAA receptor benzodiazepine (BZD) binding site or Midazolam, a benzodiazepine positive allosteric modulator (PAM) at the GABAA receptor benzodiazepine (BZD) binding site. The concentration of the γ2 subunit encoding RNA usually was 5-to 10-fold higher than the RNAs encoding the other subunits. Oocytes were kept in modified Barth's medium (composition in mM: NaCl 88, KCl 1, NaHCO3 4, HEPES 10, MgSO4 0.82, CaNO3 0.33, CaCl2 0.33, pH=7.5) at 20° C. until the experiment.
Electrophysiological experiments were performed on days 3 to 5 after the micro-injection of mRNA. During the experiment the oocytes were constantly superfused by a solution containing (in mM) NaCl 90, KCl 1, HEPES 5, MgCl2 1, CaCl2 1 (pH 7.4). Oocytes were impaled by two glass microelectrodes (resistance: 0.4 MΩ) which were filled with a solution containing KCl 1M+K-acetate 1.5 M and voltage-clamped to −80 mV. The recordings were performed at room temperature using the Roboocyte two-electrode voltage clamp system (Multichannelsystem). After an initial equilibration period of 1.5 min GABA was added for 1.5 min at a concentration evoking approximately 20% of a maximal current response (EC20). After another rest interval of 2.5 min GABA was again added evoking a response of similar amplitude and shape. […] Current traces were recorded at a digitization rate of 10 Hz during and shortly before and after the GABA application.
Each compound and concentration was tested on at least 3 oocytes.
For the analysis, the digitized current traces of the first and second GABA response were superimposed and, if necessary, rescaled to equal maximal amplitudes. The ratio between the two responses during the time interval of test compound application was calculated point by point. The extremum of the resulting “ratio trace” was taken as the efficacy (“Fold increase”) of the compound expressed as “% modulation of GABA EC20” (100*(Fold increase−1)).

Ki [1] [nM]	Efficacy (GABA) % [2] [%]	Fold increase h-GABA-A α5β3γ2 oocyte [2]	Structure (SMILES)
25.4	55	1.55	COc1ccc(-c2noc(C)c2COc2ccc(C(=O)NC3CCOCC3)cn2)cn1 [Example 137, 6-((3-(6-methoxypyridin-3-yl)-5-methylisoxazol-4-yl)methoxy)-N-tetrahydropyran-4-yl-pyridine-3-carboxamide]
9.6	69	1.69	Cc1ccc(-c2noc(C)c2COc2cc3c(cn2)C(=O)N(C2CCSCC2)C3)cn1 [Example 107, 6-((5-methyl-3-(6-methylpyridin-3-yl)isoxazol-4-yl)methoxy)-2-(tetrahydro-2H-thiopyran-4-yl)-1H-pyrrolo[3,4-c]pyridin-3(2H)-one]
19.1	64	1.64	Cc1ccc(-c2noc(C)c2COc2ccc(C(=O)NC3CC4(C3)CC(F)(F)C4)nn2)cn1 [Example 167, N-(6,6-difluorospiro[3.3]heptan-2-yl)-6-((5-methyl-3-(6-methylpyridin-3-yl)isoxazol-4-yl)methoxy)pyridazine-3-carboxamide]
4.9	59	1.59	Cc1ccc(-c2noc(C)c2COc2ccc(C(=O)NC3CN(C(C)C)C3)nn2)cn1 [Example 116, N-(1-isopropylazetidin-3-yl)-6-((5-methyl-3-(6-methylpyridin-3-yl)isoxazol-4-yl)methoxy)pyridazine-3-carboxamide]
15.4	46	1.46	Cc1ccc(-c2noc(C)c2COc2ccc(C(=O)N3CC4(C3)CC(F)(F)C4)nn2)cn1 [Example 155, (6,6-difluoro-2-azaspiro[3.3]heptan-2-yl)(6-((5-methyl-3-(6-methylpyridin-3-yl)isoxazol-4-yl)methoxy)pyridazin-3-yl)methanone]
22.1	106	2.06	CCc1onc(-c2ccc(C)nc2)c1COc1ccc(C(=O)NC2CC2)nn1 [Example 123, N-cyclopropyl-6-((5-ethyl-3-(6-methylpyridin-3-yl)isoxazol-4-yl)methoxy)pyridazine-3-carboxamide]
79	81	1.81	Cc1ccc(-c2noc(C)c2COc2ccc(C(=O)N[C@H]3CCCOC3)nn2)cn1 [Example 103, (S)-6-((5-methyl-3-(6-methylpyridin-3-yl)isoxazol-4-yl)methoxy)-N-(tetrahydropyran-3-yl)pyridazine-3-carboxamide]
29	144	2.44	CCC[C@@H](CO)NC(=O)c1ccc(OCc2c(-c3cnc(C)c(F)c3)noc2C)nc1 [Example 145, 6-((3-(5-fluoro-6-methyl-3-pyridyl)-5-methyl-isoxazol-4-yl)methoxy)-N-((1S)-1-(hydroxymethyl)butyl)pyridine-3-carboxamide]
37.7	64	1.64	Cc1ccc(-c2noc(C)c2COc2ccc(C(=O)N[C@@H]3CCCC[C@H]3O)cn2)cn1 [Example 132, N-((1R,2R)-2-hydroxycyclohexyl)-6-((5-methyl-3-(6-methylpyridin-3-yl)isoxazol-4-yl)methoxy)pyridine-3-carboxamide]

The next lines start with the molecule.

Structure (SMILES)	Ki [1] [nM]	Efficacy (GABA) % [2] [%]	Fold increase h-GABA-A α5β3γ2 oocyte [2]
Cc1ccc(-c2noc(C)c2COc2ccc(C(=O)NC3(C#N)CC3)nn2)cn1 [Example 69, N-(1-cyanocyclopropyl)-6-((5-methyl-3-(6-methylpyridin-3-yl)isoxazol-4-yl)methoxy)pyridazine-3-carboxamide]	7.7	86	1.86
Cc1ccc(-c2noc(C)c2COc2ccc(C(=O)NCC3CC3)nn2)cn1 [Example 31, N-(cyclopropylmethyl)-6-((5-methyl-3-(6-methylpyridin-3-yl)isoxazol-4-yl)methoxy)pyridazine-3-carboxamide]	14.2	102	2.02
Cc1ccc(-c2noc(C)c2COc2ccc(C(=O)NCC(F)(F)F)nn2)cn1 [Example 40, 6-((5-methyl-3-(6-methylpyridin-3-yl)isoxazol-4-yl)methoxy)-N-(2,2,2-trifluoroethyl)pyridazine-3-carboxamide]	10.6	91	1.91
Cc1ccc(-c2noc(C)c2COc2ccc(C(=O)N3CC(C)(O)C3)nn2)cn1 [Example 56, (3-hydroxy-3-methylazetidin-1-yl)(6-((5-methyl-3-(6-methylpyridin-3-yl)isoxazol-4-yl)methoxy)pyridazin-3-yl)methanone]	7.9	64	1.64
Cc1ccc(-c2noc(C)c2COc2ccc(C(=O)N3CCC3)nn2)cn1 [Example 57, azetidin-1-yl(6-((5-methyl-3-(6-methylpyridin-3-yl)isoxazol-4-yl)methoxy)pyridazin-3-yl)methanone]	7.2	64	1.64
Cc1ccc(-c2noc(C)c2COc2ccc(C(=O)NC3CC3)nn2)cn1 [Example 26, N-cyclopropyl-6-((5-methyl-3-(6-methylpyridin-3-yl)isoxazol-4-yl)methoxy)pyridazine-3-carboxamide]	5.2	80	1.8
Cc1ccc(-c2noc(C)c2COc2cnc(C(=O)NC3CCC(F)(F)CC3)cn2)cn1 [Example 86, N-(4,4-difluorocyclohexyl)-5-((5-methyl-3-(6-methyl-3-pyridyl)isoxazol-4-yl)methoxy)pyrazine-2-carboxamide]	17	120	2.2
Cc1ccc(-c2noc(C)c2COc2ccc(C(=O)N[C@@H]3CCCC[C@@H]3O)nn2)cn1 [Example 27, N-((1R,2S)-2-hydroxycyclohexyl)-6-((5-methyl-3-(6-methylpyridin-3-yl)isoxazol-4-yl)methoxy)pyridazine-3-carboxamide]	12.3	54	1.54
Cc1ccc(-c2noc(C)c2COc2ccc(C(=O)N[C@@]3(C)CCOC3)nn2)cn1 (single isomer, unassigned) [Example 81]	10.4	80	1.8
Cc1ccc(-c2noc(C)c2COc2ccc(C(=O)NC3CCS(=O)(=O)CC3)nn2)cn1 [Example 30, N-(1,1-dioxothian-4-yl)-6-((5-methyl-3-(6-methylpyridin-3-yl)-1,2-oxazol-4-yl)methoxy)pyridazine-3-carboxamide]	12.4	94	1.94
Cc1ccc(-c2noc(C)c2COc2ccc(C(=O)NCC(C)C)cn2)cn1 [Example 11, N-isobutyl-6-((5-methyl-3-(6-methylpyridin-3-yl)isoxazol-4-yl)methoxy)nicotinamide]	11.2	55	1.55

— patent publication US20240279218A1 (Hoffmann-La Roche Inc., priority 2016, published 2024)
